Measured values: US11672817B2, “Maltosyl-Isomaltooligosaccharides” (ISOThrive Inc., priority 2016, dated 2023)
No end group written: not given here.

Key:
[1] = test system: Weissella viridescens NRRL B-1951; assay: W. viridescens culture absorbance (growth) with nisin; type: cell-based; design: key to Corrected ABS 610rs: A600 minus background absorbance taken just after inoculation; conditions: for 91516 ABS 610f: final absorbance, uncorrected
Experimental: Purified nisin A and Z are commercially available and were acquired from Handary S. A. (Brussels Belgium). Certificates of analysis for each lot indicated purities of 95.2 and 99.6% for nisin A and Z, respectively.
100 g De-Man, Rogosa and Sharpe (MRS) media was prepared in a 500 mL Erlenmeyer to contain 5.5% solids in deionized water (18.2 MS2, Hydro Service and Supplies, Gaithersburg, Md.). The media was autoclaved (121° C. 15 min), cooled, and inoculated with 1 mL (0.5 mL culture+0.5 mL glycerol, 40%; frozen at −78° C.) of Weissella viridescens NRRL B-1951 (test strain). The culture was incubated at 31° C. overnight (15 Hr).
The next day, stock solutions of either nisin A or Z were prepared in deionized water to contain 31.3 and 33.7 μg/g of each peptide.
(§1) 100 g MRS media was prepared to contain 5.5% solids. Two sets (one set each for nisin A and nisin Z) of eight Hach-type tubes (Kimble Chase 45066-16100) were prepared. Within each set, in order was added 5.00, 4.95, 4.90, 4.75, 4.50, 4.00, 3.50 and 3.00 g MRS media. The tubes were sealed and autoclaved.
(§2) To each tube was added, of the appropriate nisin stock, 0.00, 0.05, 0.10, 0.25, 0.50, 1.00, 1.50, and 2.00 g. Each tube was inoculated with 0.25 g of late-log W. viridescens NRRL B-1951 culture. The tubes were sealed and the absorbance at 600 nm was quickly measured (Hach DR900). The tubes were segregated by set and incubated at 31° C. overnight (15 Hr).
Each tube was thoroughly mixed to suspend settled cells and the absorbance was measured again at 600 nm. The final absorbance values for each sample were corrected for their respective background (taken just after inoculation, scattered light from added cells). The corrected absorption values were a measure of W. viridescens growth. The corrected values were plotted against nisin concentration and minimum inhibiting concentration approximated via regression.

[2] = test system: Weissella viridescens NRRL B-1951; assay: HPLC of culture supernatants: consumption of glucose and production of organic acids with nisin; type: cell-based; conditions: for acetic acid in the fermentation media: MRS media originally contained 7% acetate
Experimental: as §1, §2
Each tube was sampled (1.5 mL conical polypropylene centrifuge tubes) and centrifuged at 10 kRPM for 10 minutes to remove and suspended cells. The resulting supernatants were filtered (0.2 μm nylon), diluted to 0.5% solids, and analyzed by high pressure liquid chromatography (HPLC, Agilent 1100, refractive index detector and BioRad Ainex HPX-87H column) for consumption of glucose and production of organic acids. The following table illustrates the concentration of sugars such as glucose and production of organic acids during the incubation.
Note that the MRS media originally contained 7% acetate; therefore 7% should be subtracted from the values for acetate in the above table to ascertain the amount of acetate generated during the assay.

Substance: nisin A (ITSISLCTPGCKTGALMGCNMKTATCHCSIHVSK; not fully specified (residues 2, 5, 33, bridges); also: lantibiotic (thioether rings, dehydrated residues not placed); UniProt P13068 24-57, looked up) [Purified nisin A, commercially available, acquired from Handary S. A; purity 95.2%; bacteriocin peptide]
- inhibition of bacterial growth [1]: can effectively inhibit
- 91516 ABS 610f ([1]; nisin A 0.33 μg/g (tube A2)): 1.568
- 91516 ABS 610f ([1]; nisin A 0.68 μg/g (tube A3)): 1.531
- 91516 ABS 610f ([1]; nisin A 1.38 μg/g (tube A4)): 1.334
- 91516 ABS 610f ([1]; nisin A 3.08 μg/g (tube A5)): 0.911
- 91516 ABS 610f ([1]; nisin A 5.97 μg/g (tube A6)): 0.536
- 91516 ABS 610f ([1]; nisin A 8.86 μg/g (tube A7)): 0.403
- 91516 ABS 610f ([1]; nisin A 11.87 μg/g (tube A8)): 0.361
- Corrected ABS 610rs ([1]; nisin A 0.33 μg/g (tube A2)): 1.106
- Corrected ABS 610rs ([1]; nisin A 0.68 μg/g (tube A3)): 1.063
- Corrected ABS 610rs ([1]; nisin A 1.38 μg/g (tube A4)): 0.868
- Corrected ABS 610rs ([1]; nisin A 3.08 μg/g (tube A5)): 0.473
- Corrected ABS 610rs ([1]; nisin A 5.97 μg/g (tube A6)): 0.116
- Corrected ABS 610rs ([1]; nisin A 8.86 μg/g (tube A7)): 0.001
- Corrected ABS 610rs ([1]; nisin A 11.87 μg/g (tube A8)): 0.001
- Maltotriose in the fermentation media ([2]; nisin A 0.33 μg/g (tube A2)): 0.312 %/brix
- ethanol in the fermentation media ([2]; nisin A 0.33 μg/g (tube A2)): 0.068 %/brix
- formic acid in the fermentation media ([2]; nisin A 0.33 μg/g (tube A2)): 0.263 %/brix
- fructose in the fermentation media ([2]; nisin A 0.33 μg/g (tube A2)): 0.000 %/brix
- glucose in the fermentation media ([2]; nisin A 0.33 μg/g (tube A2)): 23.122 %/brix
- glycerol in the fermentation media ([2]; nisin A 0.33 μg/g (tube A2)): 0.292 %/brix
- lactic acid in the fermentation media ([2]; nisin A 0.33 μg/g (tube A2)): 6.884 %/brix
- maltose in the fermentation media ([2]; nisin A 0.33 μg/g (tube A2)): 0.581 %/brix
- acetic acid in the fermentation media ([2]; nisin A 0.33 μg/g (tube A2)): 7.967 %/brix
- Maltotriose in the fermentation media ([2]; nisin A 1.38 μg/g (tube A4)): 0.298 %/brix
- ethanol in the fermentation media ([2]; nisin A 1.38 μg/g (tube A4)): 0.062 %/brix
- formic acid in the fermentation media ([2]; nisin A 1.38 μg/g (tube A4)): 0.282 %/brix
- fructose in the fermentation media ([2]; nisin A 1.38 μg/g (tube A4)): 0.000 %/brix
- glucose in the fermentation media ([2]; nisin A 1.38 μg/g (tube A4)): 24.138 %/brix
- glycerol in the fermentation media ([2]; nisin A 1.38 μg/g (tube A4)): 0.319 %/brix
- lactic acid in the fermentation media ([2]; nisin A 1.38 μg/g (tube A4)): 5.496 %/brix
- maltose in the fermentation media ([2]; nisin A 1.38 μg/g (tube A4)): 0.815 %/brix
- acetic acid in the fermentation media ([2]; nisin A 1.38 μg/g (tube A4)): 8.219 %/brix
- Maltotriose in the fermentation media ([2]; nisin A 3.08 μg/g (tube A5)): 0.276 %/brix
- ethanol in the fermentation media ([2]; nisin A 3.08 μg/g (tube A5)): 0.094 %/brix
- formic acid in the fermentation media ([2]; nisin A 3.08 μg/g (tube A5)): 0.407 %/brix
- fructose in the fermentation media ([2]; nisin A 3.08 μg/g (tube A5)): 0.000 %/brix
- glucose in the fermentation media ([2]; nisin A 3.08 μg/g (tube A5)): 24.698 %/brix
- glycerol in the fermentation media ([2]; nisin A 3.08 μg/g (tube A5)): 0.350 %/brix
- lactic acid in the fermentation media ([2]; nisin A 3.08 μg/g (tube A5)): 4.672 %/brix
- maltose in the fermentation media ([2]; nisin A 3.08 μg/g (tube A5)): 0.598 %/brix
- acetic acid in the fermentation media ([2]; nisin A 3.08 μg/g (tube A5)): 8.296 %/brix
- Maltotriose in the fermentation media ([2]; nisin A 5.97 μg/g (tube A6)): 0.288 %/brix
- ethanol in the fermentation media ([2]; nisin A 5.97 μg/g (tube A6)): 0.057 %/brix
- formic acid in the fermentation media ([2]; nisin A 5.97 μg/g (tube A6)): 0.280 %/brix
- fructose in the fermentation media ([2]; nisin A 5.97 μg/g (tube A6)): 0.000 %/brix
- glucose in the fermentation media ([2]; nisin A 5.97 μg/g (tube A6)): 25.304 %/brix
- glycerol in the fermentation media ([2]; nisin A 5.97 μg/g (tube A6)): 0.328 %/brix
- lactic acid in the fermentation media ([2]; nisin A 5.97 μg/g (tube A6)): 2.707 %/brix
- maltose in the fermentation media ([2]; nisin A 5.97 μg/g (tube A6)): 0.941 %/brix
- acetic acid in the fermentation media ([2]; nisin A 5.97 μg/g (tube A6)): 8.143 %/brix
- Maltotriose in the fermentation media ([2]; nisin A 8.86 μg/g (tube A7)): 0.419 %/brix
- ethanol in the fermentation media ([2]; nisin A 8.86 μg/g (tube A7)): 0.055 %/brix
- formic acid in the fermentation media ([2]; nisin A 8.86 μg/g (tube A7)): 0.234 %/brix
- fructose in the fermentation media ([2]; nisin A 8.86 μg/g (tube A7)): 0.000 %/brix
- glucose in the fermentation media ([2]; nisin A 8.86 μg/g (tube A7)): 25.444 %/brix
- glycerol in the fermentation media ([2]; nisin A 8.86 μg/g (tube A7)): 0.299 %/brix
- lactic acid in the fermentation media ([2]; nisin A 8.86 μg/g (tube A7)): 1.521 %/brix
- maltose in the fermentation media ([2]; nisin A 8.86 μg/g (tube A7)): 0.775 %/brix
- acetic acid in the fermentation media ([2]; nisin A 8.86 μg/g (tube A7)): 7.899 %/brix
- Maltotriose in the fermentation media ([2]; nisin A 11.87 μg/g (tube A8)): 0.305 %/brix
- ethanol in the fermentation media ([2]; nisin A 11.87 μg/g (tube A8)): 0.071 %/brix
- formic acid in the fermentation media ([2]; nisin A 11.87 μg/g (tube A8)): 0.233 %/brix
- fructose in the fermentation media ([2]; nisin A 11.87 μg/g (tube A8)): 0.000 %/brix
- glucose in the fermentation media ([2]; nisin A 11.87 μg/g (tube A8)): 25.537 %/brix
- glycerol in the fermentation media ([2]; nisin A 11.87 μg/g (tube A8)): 0.301 %/brix
- lactic acid in the fermentation media ([2]; nisin A 11.87 μg/g (tube A8)): 1.579 %/brix
- maltose in the fermentation media ([2]; nisin A 11.87 μg/g (tube A8)): 0.739 %/brix
- acetic acid in the fermentation media ([2]; nisin A 11.87 μg/g (tube A8)): 8.091 %/brix
